Measured values published in ChEMBL document CHEMBL5260845, “Flavone-based arylamides as potential anticancers: Design, synthesis and in vitro cell-based/cell-free evaluations” (2020).
Activity calls are given as the source filed them. No cut-off for these calls is given here.

Columns and labels:
HCT-116 = experiment: Antiproliferative activity against human HCT-116 cells assessed as cell growth inhibition at 10 uM by SRB assay; type: functional, cell-based
Renal cancer cell line = experiment: Antiproliferative activity against human renal cancer cells assessed as cell growth inhibition at 10 uM by SRB assay relative to control; type: functional
Hs-578T [1] = experiment: Antiproliferative activity against human Hs-578T cells assessed as inhibition of cell growth at 10 uM by SRB assay relative to control; type: functional
NCI-H460 = experiment: Antiproliferative activity against human NCI-H460 cells assessed as cell growth inhibition at 10 uM by SRB assay relative to control; type: functional
RXF 393 = experiment: Antiproliferative activity against human RXF 393 cells assessed as inhibition of cell growth at 10 uM by SRB assay relative to control; type: functional
OVCAR-8 = experiment: Antiproliferative activity against human OVCAR-8 cells assessed as cell growth inhibition at 10 uM by SRB assay relative to control; type: functional
OVCAR-4 = experiment: Antiproliferative activity against human OVCAR-4 cells assessed as cell growth inhibition at 10 uM by SRB assay relative to control; type: functional
ACHN = experiment: Antiproliferative activity against human ACHN cells assessed as inhibition of cell growth at 10 uM by SRB assay relative to control; type: functional; details: pooled result: one value given for 2 cell lines, strains, targets or settings
[2] = Antiproliferative activity against human brain cancer cells assessed as cell growth inhibition at 10 uM by SRB assay relative to control; type: functional
HCC 2998 = experiment: Antiproliferative activity against human HCC 2998 cells assessed as cell growth inhibition at 10 uM by SRB assay; type: functional, cell-based
UACC-62 = experiment: Antiproliferative activity against human UACC-62 cells assessed as cell growth inhibition at 10 uM by SRB assay relative to control; type: functional
COLO 205 = experiment: Antiproliferative activity against human COLO 205 cells assessed as cell growth inhibition at 10 uM by SRB assay; type: functional, cell-based
SNB-19 = experiment: Antiproliferative activity against temozolomide resistant human SNB-19 cells assessed as cell growth inhibition at 10 uM by SRB assay; type: functional, cell-based
HT-29 = experiment: Antiproliferative activity against human HT-29 cells assessed as cell growth inhibition at 10 uM by SRB assay; type: functional, cell-based
786-0 = experiment: Antiproliferative activity against human 786-0 cells assessed as inhibition of cell growth at 10 uM by SRB assay relative to control; type: functional
KM12 = experiment: Antiproliferative activity against human KM12 cells assessed as cell growth inhibition at 10 uM by SRB assay; type: functional, cell-based
Breast carcinoma cell = experiment: Antiproliferative activity against human breast cancer cells assessed as cell growth inhibition at 10 uM by SRB assay relative to control; type: functional; details: pooled result: one value given for 3 cell lines, strains, targets or settings
HCT-15 = experiment: Antiproliferative activity against human HCT-15 cells assessed as cell growth inhibition at 10 uM by SRB assay; type: functional, cell-based
RPMI-8226 [3] = experiment: Antiproliferative activity against human RPMI-8226 cells assessed as cell growth inhibition at 10 uM by SRB assay relative to control; type: functional
SW-620 = experiment: Antiproliferative activity against human SW620 cells assessed as cell growth inhibition at 10 uM by SRB assay; type: functional, cell-based
Lung cancer cell line = experiment: Antiproliferative activity against human lung cancer cells assessed as cell growth inhibition at 10 uM by SRB assay relative to control; type: functional
SN12C = experiment: Antiproliferative activity against human SN12C cells assessed as inhibition of cell growth at 10 uM by SRB assay relative to control; type: functional
BT-549 = experiment: Antiproliferative activity against triple negative human BT-549 cells assessed as inhibition of cell growth at 10 uM by SRB assay relative to control; type: functional
MDA-MB-231 = experiment: Antiproliferative activity against human MDA-MB-231 cells assessed as inhibition of cell growth at 10 uM by SRB assay relative to control; type: functional
T47D = experiment: Antiproliferative activity against human T47D cells assessed as inhibition of cell growth at 10 uM by SRB assay relative to control; type: functional
MCF7 = experiment: Antiproliferative activity against estrogen receptor positive human MCF7 cells assessed as inhibition of cell growth at 10 uM by SRB assay relative to control; type: functional
HL-60 = experiment: Antiproliferative activity against human HL-60 cells assessed as cell growth inhibition at 10 uM by SRB assay; type: functional, cell-based
NCI-H522 = experiment: Antiproliferative activity against human NCI-H522 cells assessed as cell growth inhibition at 10 uM by SRB assay; type: functional, cell-based
DU-145 = experiment: Antiproliferative activity against human DU-145 cells assessed as inhibition of cell growth at 10 uM by SRB assay relative to control; type: functional
Hs-578T [4] = experiment: Antiproliferative activity against human Hs-578T cells assessed as inhibition of cell growth at 10 uM by SRB assay; type: functional, cell-based
NCI-H23 = experiment: Antiproliferative activity against human NCI-H23 cells assessed as cell growth inhibition at 10 uM by SRB assay; type: functional
PC-3 = experiment: Antiproliferative activity against human PC-3 cells assessed as inhibition of cell growth at 10 uM by SRB assay; type: functional, cell-based
SF-295 = experiment: Antiproliferative activity against human SF-295 cells assessed as cell growth inhibition at 10 uM by SRB assay; type: functional, cell-based
MOLT-4 = experiment: Antiproliferative activity against human MOLT-4 cells assessed as cell growth inhibition at 10 uM by SRB assay; type: functional, cell-based
CCRF-CEM = experiment: Antiproliferative activity against human CCRF-CEM cells assessed as cell growth inhibition at 10 uM by SRB assay; type: functional, cell-based
NCI-H226 = experiment: Antiproliferative activity against human NCI-H226 cells assessed as cell growth inhibition at 10 uM by SRB assay; type: functional
HOP-92 = experiment: Antiproliferative activity against human HOP-92 cells assessed as cell growth inhibition at 10 uM by SRB assay; type: functional, cell-based
SR = experiment: Antiproliferative activity against human SR cells assessed as cell growth inhibition at 10 uM by SRB assay; type: functional, cell-based
K562 = experiment: Antiproliferative activity against human K562 cells assessed as cell growth inhibition at 10 uM by SRB assay; type: functional, cell-based
RPMI-8226 [5] = experiment: Antiproliferative activity against human RPMI-8226 cells assessed as cell growth inhibition at 10 uM by SRB assay; type: functional, cell-based
EKVX = experiment: Antiproliferative activity against human EKVX cells assessed as cell growth inhibition at 10 uM by SRB assay; type: functional
UO-31 = experiment: Antiproliferative activity against human UO-31 cells assessed as inhibition of cell growth at 10 uM by SRB assay relative to control; type: functional

In the case of `COc1cc2oc(-c3cccc(C(=O)Nc4ccc(Cl)cc4)c3)cc(=O)c2c(O)c1OC`, the inhibition (HCT-116) is reported as “Active”, the inhibition at 10 µM (Renal cancer cell line) is reported as greater than 50% and the inhibition at 10 µM (Hs-578T [1]) is reported as 93.3%. It also gave an inhibition at 10 µM (NCI-H460) of 79.5%, an inhibition at 10 µM (RXF 393) of 53% and an inhibition at 10 µM (OVCAR-8) of 83.7%. The inhibition at 10 µM (OVCAR-4) was 130%, the inhibition at 10 µM (ACHN) was 53% and the inhibition at 10 µM [2] was greater than 50%. For the same molecule, the inhibition (HCC 2998) was “Active”, the inhibition at 10 µM (UACC-62) was 57.3% and the inhibition (COLO 205) was “Active”. The inhibition (SNB-19) was “Active”, the inhibition (HT-29) was “Active” and the inhibition at 10 µM (786-0) was 53%. For the same molecule, the inhibition (KM12) was “Active”, the inhibition at 10 µM (Breast carcinoma cell) was greater than 50% and the inhibition (HCT-15) was “Active”. The inhibition at 10 µM (RPMI-8226 [3]) was 82.6%, the inhibition (SW-620) was “Active” and the inhibition at 10 µM (Lung cancer cell line) was greater than 50%. For the same molecule, the inhibition at 10 µM (SN12C) was 53%.
Work on `CN(Cc1cnc2nc(N)nc(N)c2n1)c1ccc(C(=O)N[C@@H](CCC(=O)O)C(=O)O)cc1` [METHOTREXATE] yielded an inhibition at 10 µM (BT-549) of 53.1%, an inhibition at 10 µM (MDA-MB-231) of 40.1% and an inhibition at 10 µM (T47D) of 53.8%. For the same molecule, the inhibition at 10 µM (MCF7) was 82.8%.
In the case of `COc1cc2oc(-c3ccc(NC(=O)c4ccccc4Br)cc3)cc(=O)c2c(OC)c1OC`, the inhibition (HL-60) is reported as “Active”, the inhibition (NCI-H522) is reported as “Active” and the inhibition at 10 µM (DU-145) is reported as 29.6%. For the same molecule, the inhibition (Hs-578T [4]) was “Active”, the inhibition at 10 µM (NCI-H23) was less than 50% and the inhibition (PC-3) was “Active”. The inhibition (SF-295) was “Active”, the inhibition (MOLT-4) was “Active” and the inhibition (CCRF-CEM) was “Active”. For the same molecule, the inhibition at 10 µM (NCI-H226) was less than 50%, the inhibition (HOP-92) was “Active” and the inhibition (SR) was “Active”. For the same molecule, the inhibition (K562) was “Active”, the inhibition (RPMI-8226 [5]) was “Active” and the inhibition at 10 µM (EKVX) was less than 50%. For the same molecule, the inhibition (UO-31) was “Active”.
